Measurements: patent US20200255828A1, “METHODS AND COMPOSITIONS FOR ALTERING FUNCTION AND STRUCTURE OF CHROMATIN LOOPS AND/OR DOMAINS” (THE BROAD INSTITUTE, INC., priority 2017, published 2020)

What was measured:
histone modifications = test: ChIP-Seq for histone modifications before and after auxin; format: cell-based, human
Source text: Applicants first examined the effects of cohesin degradation on key epigenomic features associated with genome folding, using ChIP-Seq. Applicants examined the distribution of CTCF (associated with loop anchors) and the histone modifications H3K27me3, H3K36me3, H3K27Ac, H3K4me1, H3K4me3, H3K9me3, H4K16Ac, H4K20me3, H3K79me2, and H2.AZ (associated with compartment intervals). Cohesin loss had little effect on these features (FIG. 1C,D; FIG. 8C-E, see Methods).
ChIP-Seq for H3K27Ac, H3K4me1, H3K4me3, H3K36me3, H3K27me3, H3K9me3, H4K16Ac, H4K20me3, H3K79me2, and H2.AZ was performed using a native ChIP-Seq protocol. Chromatin from untreated HCT-116 RAD21-mAC cells or cells treated for 6 hours with 500 uM IAA was digested with Mnase (Sigma) in digestion buffer (50 mM Tris-HCl, pH7.6, 1 mM CaCl2), 0.2% Triton X-100, butyrate 5 mM) for 5′ at 37° C. and dialyzed against RIPA buffer for 2 hrs at 4° C. Five microgram of respective antibody was incubated with 40 μl of Dynabeads Protein A (or G) for 40 min at room temperature. Antibody-bound beads were added to 500 μl of sonicated or Mnase-digested chromatin, incubated at 4° C. overnight, and washed twice with RIPA buffer, twice with RIPA buffer containing 0.3 M NaCl, twice with LiCl buffer (0.25 M LiCl, 0.5% Igepal-630, 0.5% sodium deoxycholate), once with TE (pH 8.0) plus 0.2% Triton X-100, and once with TE (pH 8.0). ChIP DNA was purified by phenol-chloroform extraction followed by ethanol precipitation. Libraries were prepped for Illumina sequencing and 50 bp single-end reads were sequenced on a HiSeq2000 or 2500 (Illumina). Applicants also performed ChIP-Seq for RAD21 and CTCF following the same protocol as above, except that cells were fixed with 1% formaldehyde for 10 minutes at 37° C. and fixation was quenched by the addition of glycine to a final concentration of 125 mM for 10 minutes. The fixed cells were sonicated using a Branson sonifier at amplitude 35%, 12 cycles of 20 seconds of sonication and 30 seconds of pause. Antibody was added to the sonicated chromatin as above and the samples were further processed as above.
All ChIP-Seq data was aligned to hg19 with BWA […] (Li and Durbin, 2010), deduplicated using PicardTools, and analyzed with MACS 2.0 (Liu, 2014). All data was normalized against the corresponding input control using the ‘-c’ option of MACS 2.0. ChIP-Seq peaks were called using the ‘callpeak’ function of MACS 2.0 with default parameters. For H3K4me3 and H3K4me1, Applicants additionally used the ‘broad’ option of MACS 2.0 and merged close by peaks to identify broad peaks. […] Finally, in order to annotate broad-source domains, Applicants utilized RSEG (Song and Smith, 2011) using the following flags: ‘-b 25000’, ‘-i 20’, ‘-mode 2’.
Applicants calculated average signal over 5 kb bins across the entire genome and correlated signal between ChIP-Seq experiments before and after auxin treatment for each of CTCF, H3K27me3, H3K9me3, H3K4me1, H3K4me3 and H3K27Ac.
Additionally, Applicants examined overlaps of our ChIP-Seq peak annotations before and after auxin treatment for H3K4me3, H3K4me1 and H3K27Ac. […]

HCT-116 RAD21-mAC cells = test: In situ Hi-C: APA for cohesin-independent links between superenhancers; format: cell-based, human
Source text: Applicants first annotated loops in our maps for auxin-treated RAD21-mAC cells using default HiCCUPS parameters for 5, 10, and 25 kb resolutions (Durand et al., 2016b; Rao et al., 2014) with the additional requirement that the peak pixel show […] 4.5-fold enrichment over local expected (in order to remove as many false positives as possible due to rearrangements and assembly issues, see above). Using this procedure, Applicants annotated 81 loops in treated RAD21-mAC cells. […] The false discovery rate for HiCCUPS is much higher in treated cells because the number of true positives is dramatically lower. […] Applicants also noticed that the anchors involved in these 15 loops were often forming long-range loops at distances of tens of megabases and hundreds of megabases. Applicants reasoned that HiCCUPS using default parameters for loop detection was missing many of these extremely long-range loops because of the extra stringency of the HiCCUPS lambda chunking procedure for multiple hypothesis testing for pixels with low counts (i.e. pixels far off the diagonal).
More specifically, Applicants annotated loops by running HiCCUPS at 50 and 100 kb resolutions with the following parameters: p=2,1; w=4,2; fdr=10%, 10%. Applicants additionally filtered loops that were within 5 Mb of the diagonal, had less than a 2-fold observed/expected for any of the local expected, and had fewer than 3 pixels clustered into the peak pixels (see section VI.a.5 of Rao et al., 2014). This annotation yielded 88 loops. […] Combining these 46 loops with the 15 loops annotated with high resolution HiCCUPS, Applicants obtained a final curated list of 61 intrachromosomal cohesin-independent loops.
To annotate these interchromosomal links between pairs of cohesin-independent loop anchors, Applicants used HiCCUPS to calculate local enrichments at 100 kb resolution for all possible interchromosomal pairs of cohesin-independent loop anchors. Applicants then identified enriched focal interchromosomal interactions by filtering for links that were enriched at least 5.5-fold over local background (empirically chosen to ensure a <10% false discovery rate). Using this procedure, Applicants identified 203 interchromosomal cohesin-independent links. This likely underestimates the true number of interchromosomal cohesin-independent links, as evidenced by FIG. SA.
Applicants analyzed the change in strength of cohesin-independent links after auxin treatment by using APA at 100 kb resolution.
Applicants also analyzed induction of cohesin-independent links across an auxin treatment and withdrawal time course. This analysis was performed as above with the cohesin-associated loops and loop domains, but at 100 kb resolution instead of 10 kb resolution and for both our 61 intrachromosomal links and our 203 interchromosomal links. […] Similar results were seen upon performing the time course APA at 100 kb resolution using all intrachromosomal pairs of the 47 superenhancer overlapping anchors in the 88-loop automated list from above (FIG. 11E).

SMILES: O=C(O)Cc1c[nH]c2ccccc12 [auxin, indole-3-acetic acid]
- overlap of H3K4me1 ChIP-Seq peaks called before and after auxin treatment (histone modifications): 85%
- overlap of H3K4me3 ChIP-Seq peaks called before and after auxin treatment (histone modifications): 90%
- overlap of H3K27Ac ChIP-Seq peaks called before and after auxin treatment (histone modifications): 81%
- Spearman's r of ChIP-Seq signal before vs after auxin treatment, H2.AZ (histone modifications; 5 kb bins genome-wide): 0.96
- Spearman's r of ChIP-Seq signal before vs after auxin treatment, H3K4me1 (histone modifications; 5 kb bins genome-wide): 0.94
- Spearman's r of ChIP-Seq signal before vs after auxin treatment, H3K4me3 (histone modifications; 5 kb bins genome-wide): 0.70
- Spearman's r of ChIP-Seq signal before vs after auxin treatment, H3K9me3 (histone modifications; 5 kb bins genome-wide): 0.95
- Spearman's r of ChIP-Seq signal before vs after auxin treatment, H3K27Ac (histone modifications; 5 kb bins genome-wide): 0.90
- Spearman's r of ChIP-Seq signal before vs after auxin treatment, H3K27me3 (histone modifications; 5 kb bins genome-wide): 0.95
- Spearman's r of ChIP-Seq signal before vs after auxin treatment, H3K36me3 (histone modifications; 5 kb bins genome-wide): 0.94
- Spearman's r of ChIP-Seq signal before vs after auxin treatment, H3K79me2 (histone modifications; 5 kb bins genome-wide): 0.96
- Spearman's r of ChIP-Seq signal before vs after auxin treatment, H4K16Ac (histone modifications; 5 kb bins genome-wide): 0.95
- Spearman's r of ChIP-Seq signal before vs after auxin treatment, H4K20me3 (histone modifications; 5 kb bins genome-wide): 0.89
- strengthening of cohesin-independent links after auxin treatment (HCT-116 RAD21-mAC cells; APA at 100 kb resolution, intra and interchromosomal): ~2 fold
- intrachromosomal APA score of cohesin-independent links, treated (HCT-116 RAD21-mAC cells; automatedly generated list, untreated 1.69): 2.75
- interchromosomal APA score of cohesin-independent links, treated (HCT-116 RAD21-mAC cells; automatedly generated list, untreated 2.29): 3.64
- intrachromosomal APA score of cohesin-independent links, treated (HCT-116 RAD21-mAC cells; manually curated list of 61 links, untreated 2.32): 4.02
- interchromosomal APA score of cohesin-independent links, treated (HCT-116 RAD21-mAC cells; manually curated list of 203 links, untreated 3.02): 7.02
